# What was measured:
# Skme15 = assay: Toxicity with fluorescence viability probe (CellTiter-Fluo Cell Viability Assay); format: cell-based, human; conditions: composite of the variation between drug-treated and control divided by the standard error
# Description: Although the shape of the dose-response can vary among hits, the inventors chose to include all candidates which produce dose-dependent effects. The fourth criterion which was determined is the IC50 (described formally as qAC50) which represents the half-maximal suppression dose. Most of the candidate hits resided in the high nanomolar to low micromolar range by this criterion (all of these validation data are listed in Table 1). The fifth criterion was maximal suppression (at any dose), which represented the magnitude of suppression which was attainable regardless of the dose required to achieve it. […] The sixth criterion to be determined is the Log P partition coefficient, which is a predictor of lipophilicity. For this, the inventors have used the method of Ghose and Crippen to calculate the predicted octanol-water partition coefficient (J. Comp. Chem. 9, 80(1988)). While this is only an estimate of potential skin penetration, the analysis was carried out because it helps in prioritizing likelihood of topical effectiveness, in theory. The seventh criterion was an analysis of toxicity utilizing a fluorescence viability probe (CellTiter-Fluo™ Cell Viability Assay (Promega)). Interpretation of this endpoint is complicated by the fact that it represents a composite of the variation between drug-treated and control divided by the standard error The results shown in Table 1 indicate 34 candidate molecules which satisfied all of the criteria outlined above. […] Most of their potencies ranged slightly below or above 1 uM. While the lipophilicity scores remain imperfect predictors of skin penetration capability. However, numbers of >3 can be more likely to penetrate.
# [1] = test system: Microphthalmia Transcription Factor (MITF); assay: TRPM1-luciferase reporter screen for MITF antagonists in Skme15 melanoma cells; format: cell-based, human; conditions: for IC50: IC50 (described formally as qAC50), half-maximal suppression dose, unit inferred, text says potencies around 1 uM; for Conc. At Maximal Activity / Maximal Activity: dose titration; for Conc. At Maximal Activity: unit not given, in M (unit assumed); for Maximal Activity: maximal suppression of TRPM1-luciferase at any dose; for Z-Score: screen, suppression of TRPM1-luciferase activity, Skme15 cells
# Excerpt: In order to carry out a successful MITF antagonist screen, the inventors utilized a TRPM1-luciferase reporter. […] Therefore, the TRPM1-luciferase reporter stably integrated into melanoma cells is effective for the screening assay. The use of melanoma cells, while less perfectly relevant than primary human melanocytes, afforded the advantages of speed and reproducibility for the screen.
# In order to engineer a screen which broadly suppress MITF activity either by suppression of MITF expression or by inhibition of MITF activity, the inventors utilized a luciferase reporter containing the promoter of a strong direct transcriptional target of MITF, i.e., TRPM1 gene, the inventors have identified the active ingredients having the ability of inhibiting the expression or activation of Microphthalmia Transcription Factor (MITF) for medical or esthetic benefit. The inventors have previously identified the TRPM1 gene (also called “Melastatin”) as a direct target of MITF, which contains numerous MITF binding sites, and which directly responds in potent fashion to MITF overexpression (Miller A J, Du J, Rowan S, Hershey C L, Widlund H R, Fisher D E: Transcriptional regulation of the melanoma prognostic marker melastatin (TRPM1) by MITF in melanocytes and melanoma, Cancer Res 2004, 64:509-516). TRPM1 expression also correlates closely to MITF expression within human melanoma cell lines, as well as in clinical pigmented lesions (nevi and melanomas).
# The TRPM1 promoter was ligated to the luciferase gene and inserted into a retroviral vector as well as a lentiviral vector. The lentiviral vector was used to infect primary human melanocytes, which then was subjected to a primary screen using the Broad Chemical Genetics core screening facility, and its natural products/extracts libraries. As backup, the retroviral vector was used to stably integrate into the genome of melanoma cells, which can be used for the identical small molecule screen. Screen optimization was carried out using forskolin and MSH as positive control small molecules (which upregulate cAMP and MITF expression (D'Orazio J A, Nobuhisa T, Cui R, Arya M, Spry M, Wakamatsu K, Igras V, Kunisada T, Granter S R, Nishimura E K, Ito S, Fisher D E: Topical drug rescue strategy and skin protection based on the role of Mc1r in UV-induced tanning, Nature 2006, 443:340-344)). Small molecules which suppress MSH induced TRPM1-luciferase without altering cell numbers or viability, represent initial “hits” in this screen. Negative control includes a constitutive luciferase vector within the same cells (eg driven by a constitutive promoter such as thymidine kinase promoter), to control for nonspecific inhibitors of basal transcriptional machinery-something which would otherwise be assessed in detail during secondary/tertiary analyses of candidate hits.
# The human melanoma cell line Skme15 was utilized due to the advantageous growth properties as well as the inventors' prior experience that Skme15 expresses a typical level of MITF protein. […] Therefore, an integrated TRPM1-luciferase reporter was generated, and the subsequent cells were cloned twice (serially) to assure purity of the reporter cell population. Cells were maintained in drug selection to assure maintenance of the luciferase reporter (when drug was omitted, eventual loss of the luciferase signal was observed). Following re-cloning, distinct isolates were selected for further use on the basis of clonogenic growth on 384 well plates, as required for the small molecule screen. A positive control for suppression of TRPM1-luciferase signal utilized: a lentivirus encoding shRNA against MITF. […] The day-to-day variability in plating efficiency was analyzed, and found very high reproducibility in the line which was selected for further use in the screen.
# The screen was carried out with a library from the Broad Institute comprising a mixture of natural products, known bioactives, and additional compounds (a total of about 13,000 compounds). […]
Structure (SMILES),"Viability z-score (treated minus control, divided by standard error) (Skme15)",IC50 [1] [µM],Conc. At Maximal Activity [1],Maximal Activity [1],Z-Score [1]
"Cc1ccc(C23C[C@@H]4C[C@@H](CC(CN)(C4)C2)C3)cc1C [1-[(1S,3R,5R,7S)-3-(3,4-dimethylphenyl)adamantan-1-yl]methanamine]",−1.015,2.48,6.00E−06,−149,−10.8562
"COc1ccc2c(c1)OC1COc3cc(OC)c(OC)cc3C1C2=O (stereo not shown) [2,3,9-trimethoxy-6a,12a-dihydrochromoeo[3,4-b]chromen-12(6H)-one]",−4.2731,5.38,1.20E−05,−320.4,−9.245
COc1ccc([N+](=O)[O-])cc1NC(=O)COc1ccc(C(C)(C)C)cc1Br [2-(2-bromo-4-tert-butylphenoxy)-N-(2-methoxy-5-nitrophenyl)acetamide],−1.6406,,,,−12.0562
"Cc1oc2c(c1C(=O)N1CCC(C)CC1)C(=O)c1ccccc1C2=O [2-methyl-3-[(4-methylpiperidin-1-yl)carbonyl]naphtho[2,3-b]furan-4,9-dione]",0.1575,,,,−9.924
"O=C(O)CCSc1nc2ccccc2s1 [3-(1,3-benzothiazol-2-ylthio)propanoic acid]",−1.5092,,,,−9.79
O=C(O)c1cccc(COc2ccc(CO)cc2Cl)c1 [3-{[2-chloro-4-(hydroxymethyl)phenoxy]methyl}benzoic acid],−1.5092,,,,−9.909
COc1cc(CO)ccc1OCc1cccc(C(=O)O)c1 [3-{[4-(hydroxymethyl)-2-methoxyphenoxy]methyl}benzoic acid],−1.6406,,,,−10.9296
Cc1ccc(OCC(=O)Nc2cccc(C(=O)O)c2)c(Br)c1 [3-{[(2-bromo-4-methylphenoxy)acetyl]amino}benzoic acid],−1.5092,,,,−10.0837
CCOc1ccc(OCC(=O)Nc2cccc(C(=O)O)c2)cc1 [3-{[(4-ethoxyphenoxy)acetyl]amino}benzoic acid],−1.5092,,,,−9.9
"COc1cc(C(=O)Nc2cc(-c3nc4ncccc4o3)ccc2C)ccc1OCc1ccc(Cl)cc1 [4-[(4-chlorobenzyl)oxy]-3-methoxy-N-(2-methyl-5-[1,3]oxazolo[4,5-b]pyridin-2-ylphenyl)benzamide]",,,,,−9.256
"Clc1ccc(C2=NN=C(N3CCCC3)SC2)cc1 [5-(4-chlorophenyl)-2-pyrrolidin-1-yl-6H-1,3,4-thiadiazine]",−0.2442,,,,−9.961
CC(C)(C)c1ccc(C(=O)N2CCN(c3ccc([N+](=O)[O-])c(NCc4cccnc4)c3)CC2)cc1 [5-[4-(4-tert-butylbenzoyl)piperazin-1-yl]-2-nitro-N-(pyridin-3-ylmethyl)aniline],−0.8893,,,,−9.588
"Cc1ccc(C)c(C(Nc2ccccn2)c2cc(Cl)c3cccnc3c2O)c1 (stereo not shown) [5-chloro-7-[(2,5-dimethylphenyl)(pyridin-2-ylamino)methyl]quinolin-8-ol]",−0.8893,,,,−8.461
Oc1c(C(Nc2ccccn2)c2c(F)cccc2Cl)cc(Cl)c2cccnc12 (stereo not shown) [5-chloro-7-[(2-chloro-6-fluorophenyl)(pyridin-2-ylamino)methyl]quinolin-8-ol],−2.226,,,,−9.327
"c1ccc(-c2cnc3nonc3n2)cc1 [5-phenyl[1,2,5]oxadiazolo[3,4-b]pyrazine]",−0.0206,,,,−9.989
"O=c1[nH]c(=O)n(Cc2ccco2)c2c1C(C(F)(F)F)(C(F)(F)F)N=C(c1ccc(F)cc1)N2 [7-(4-fluorophenyl)-1-(2-furylmethyl)-5,5-bis(trifluoromethyl)-5,8-dihydropyrimido[4,5-d]pyrimidine-2,4(1H,3H)-dione]",−2.0352,,,,−8.791
"CC(C)(C)[C@H]1CC[C@@]2(CC1)[C@@H](C#N)[C@]2(C#N)C(=O)c1ccccc1 [(1S,2R,3S,6S)-1-benzoyl-6-tert-butylspiro[2.5]octane-1,2-dicarbonitrile]",0.4824,5.69,1.95E−05,−274.1,−11.0899
CCOC(=O)c1c(C)n(Cc2ccccc2)c2ccc(OCC(O)CNC(C)(C)C)cc12 (stereo not shown) [Ethyl-1-benzyl-5-[3-(tert-butylamino)-2-hydroxypropoxy]-2-methyl-1H-indole-3-carboxylate],−2.519,,,,−7.844
"CCOC(=O)COc1cccc(-c2nc3ccccc3s2)c1 [Ethyl-[3-(1,3-benzothiazol-2-yl)phenoxy]acetate]",−0.0206,,,,−9.663
"Cc1cccc(-c2nnc(SCC(=O)Nc3ccccc3F)o2)c1 [N-(2-fluorophenyl)-2-{[5-(3-methylphenyl)-1,3,4-oxadiazol-2-yl]thio}acetamide]",−0.0206,,,,−10.7661
O=C(NCCCc1ccccc1)N1c2ccccc2Sc2ccccc21 [N-(3-phenylpropyl)-10H-phenothiazine-10-carboxamide],−4.128,,,,−9.495
"O=C(CSc1nc2cc([N+](=O)[O-])ccc2[nH]1)Nc1cc(C(F)(F)F)cc(C(F)(F)F)c1 [N-[3,5-bis(trifluoromethyl)phenyl]-2-[(5-nitro-1H-benzimidazol-2-yl)thio]acetamide]",,,,,−10.0284
"Cc1ccc2nc(-c3ccc(NC(=O)CSc4nnc(C)s4)cc3)sc2c1 [N-[4-(6-methyl-1,3-benzothiazol-2-yl)phenyl]-2-[(5-methyl-1,3,4-thiadiazol-2-yl)thio]acetamide]",1.032,,,,−9.3543
"COc1ccc(OC)c(S(=O)(=O)N2CCC(C(=O)Nc3ccc(Cl)c(C(F)(F)F)c3)CC2)c1 [N-[4-chloro-3-(trifluoromethyl)phenyl]-1-[(2,5-dimethoxyphenyl)sulfonyl]piperidine-4-carboxamide]",−0.2442,,,,−9.871
